What was measured:
[1] = test system: DU145 prostate cancer cells; experiment: Prostate cancer xenograft model, tumor volume (Example 4); assay type: in vivo, athymic nu/nu mice; details: bevacizumab alone at 12 mg/kg, Q5d
Protocol: DU145 prostate cancer cells were injected subcutaneously into athymic nu/nu mice and tumors were allowed to form. Animals were assorted into groups of 9-10 mice, then treated with DX-2240 (20 mg/kg by IP injection, […]), an isotype-matched antibody control (A2, 20 mg/kg by IP injection, Q2d), bevacizumab (12 mg/kg by IP injection, […]), DX-2240 20 mg/kg Q2d+bevacizumab (DX-2240 20 mg/kg Q2d+bevacizumab at 12 mg/kg, […], starting at day 25), DX-2240 20 mg/kg Q4d+bevacizumab (DX-2240 20 mg/kg Q4d+bevacizumab at 12 mg/kg, […], starting at day 25), DX-2240 10 mg/kg Q4d+bevacizumab (DX-2240 10 mg/kg Q4d+bevacizumab at 12 mg/kg, […], starting at day 25), DX-2240 5 mg/kg Q4d+bevacizumab (DX-2240 5 mg/kg Q4d+bevacizumab at 12 mg/kg, […], starting at day 25), DX-2240 1 mg/kg Q4d+bevacizumab (DX-2240 1 mg/kg Q4d+bevacizumab at 12 mg/kg, […], starting at day 25), DX-2240+sorafenib (DX-2240 at 20 mg/kg by IP injection, […], sorafenib at 100 mg/kg orally (PO) daily for nine days (QDx9) starting at day 25 and 56), or A2+sorafenib (A2 at 20 mg/kg by IP injection, […], sorafenib 100 mg/kg PO QDx9 starting at day 25 and 56). After day 34, mice in the DX-2240 only and A2 only groups were given an additional agent, and were no longer available as controls for this experiment. Tumor volume was measured twice weekly.

[2] = test system: BxPC3 (human pancreatic cancer cell line) tumor; experiment: Pancreatic cancer xenograft model, tumor size by calipers (Example 3); assay type: in vivo, nude mice (nu/nu); details: as single agents
Protocol: The antitumor activity of combinations of DX-2240 and bevacizumab (anti-VEGF antibody) or sorafenib (multi-kinase inhibitor) were tested in a human tumor xenograft model. BxPC3 (human pancreatic cancer cell line) tumor fragments harvested from host nude mice (nu/nu) bearing subcutaneous BxPC-3 tumors were implanted subcutaneously into female nude mice (study animals) and allowed to form tumors. Mice were pair matched by tumor size and randomized into the various treatment groups when the tumors reached approximately 100 mm^3 (about 18 days following tumor implantation). The animals were assorted into the treatment groups shown in Table 1 (“Start” refers to the day on which treatment was begun). DX-2240 was administered by intraperitoneal (IP) injection at 20 mg/kg; bevacizumab was administered by IP injection at 10 mg/kg, sorafenib was administered orally at 60 mg/kg (for a total of 9 doses), and the control IgG (palivizumab, an antibody of the same isotype as DX-2240) was administered by IP injection at 20 mg/kg at the indicated dosing start dates and dosing regimens. An additional positive control group (group 13) was included: these animals were dosed with gemcitabine at 40 mg/kg Q3d for a total of four doses.
Tumor size was evaluated every three to four days using calipers.

With bevacizumab: anti-VEGF antibody the tumor size [1] was “tumor shrinkage” and the “tumor size as compared to control” value [2] was “reduced tumor size”.
